Measured values: PubChem BioAssay (NCI)
Where “and” joins values, the source holds several entries; their conditions need not be identical. Equal entries are not always repeated.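 These data come from cells grown in 96-well plates and exposed to compound for 48 hours at five concentrations. The concentration for 50% growth inhibition is given as GI50. TGI: concentration producing complete growth inhibition.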

Key:
Test in all cases: NCI tumour cell line growth inhibition, 48 h
[1] = test system: 786-0 renal
[2] = test system: BT-549 breast
[3] = test system: DU-145 prostate
[4] = test system: HOP-62 NSCLC
[5] = test system: KM12 colon
[6] = test system: MALME-3M melanoma
[7] = test system: MCF7 breast
[8] = test system: OVCAR-8 ovarian
[9] = test system: SNB-19 CNS
[10] = test system: SR leukemia

Compound	GI50 [1] [µM]	TGI [1] [µM]	GI50 [2] [µM]	TGI [2] [µM]	GI50 [3] [µM]	TGI [3] [µM]	GI50 [4] [µM]	TGI [4] [µM]	GI50 [5] [µM]	TGI [5]	GI50 [6] [µM]	TGI [6]	GI50 [7] [µM]	TGI [7]	GI50 [8] [µM]	TGI [8]	GI50 [9] [µM]	TGI [9] [µM]	TGI [10] [µM]	GI50 [10] [µM]
Cc1ccc(S(=O)(=O)NC(CCCCN)C(=O)CCl)cc1 (centres undefined)	73.2	> 100	27.6	89.6	81.2	> 100	63.5	> 100	55.9	> 100 µM	68.7	> 100 µM	57.9	> 100 µM	> 100	> 100 µM	47.8	> 100	–	–
CCCCCCCCCCCCOC1C(C(COC2OC(C(O)CO)C3OC(C)(C)OC23)OC(=O)Nc2ccc([N+](=O)[O-])cc2)OC2OC(C)(C)OC21 (centres undefined)	1.7	3.15	1.9	5.57	2.52	7.17	1.95	3.8	2	4.1 µM	3.16	9.64 µM	2.69	8.6 µM	3.59	14.5 µM	9.43	21.8	–	–
CCOc1ccccc1Nc1nc(C)c(C(=O)CC(=O)C(=O)Nc2ccccc2)s1	–	> 100	–	–	–	–	–	> 100	–	> 100 µM	–	> 100 µM	–	–	–	> 100 µM	–	> 100	> 100	–
CC(C)(O)C1CC(=O)C(C)(C2C(O)CC3(C)C4CC=C5C(CCC(O)C5(C)C)C4(C)C(=O)CC23C)O1 (centres undefined)	–	> 100	–	> 100	–	> 100	–	> 100	–	> 100 µM	–	–	–	> 100 µM	–	> 100 µM	–	> 100	–	–
CCCCCC1C2C(=O)NC(=O)C1C(=O)NC2=O (centres undefined)	–	> 100	–	–	–	–	–	> 100	–	> 100 µM	–	> 100 µM	–	–	–	> 100 µM	–	> 100	–	–
Cc1cccc(NC(=O)c2sc3nc4c(cc3c2N)CCC4)c1C	0.367	14.3	0.443	23.5	0.407	13.9	0.428	17.4	0.407	41 µM	–	–	0.261	13.6 µM	0.427	16.6 µM	0.532	29.1	10.2	0.191
Cc1cn2cc(-c3ccncc3)nc2s1	–	> 100	–	–	–	–	–	> 100	–	> 100 µM	–	> 100 µM	–	–	–	> 100 µM	–	> 100	–	–
CC(=O)/C=C\C(=O)NNS(=O)(=O)c1ccc(C)cc1	–	> 100	–	–	–	–	–	> 100	–	> 100 µM	–	> 100 µM	–	–	–	> 100 µM	–	> 100	> 100	–
COc1ccc2nccc(C3OC(=O)N4CCC(=O)CC34)c2c1 (centres undefined)	–	> 100	–	–	–	–	–	> 100	–	> 100 µM	–	–	–	–	–	> 100 µM	–	> 100	> 100	–
O=[N+]([O-])c1ccc(-c2ccc(C3=Nn4c(nnc4-c4ccc(Cl)cc4)SC3)o2)cc1	–	> 100	–	–	–	–	–	> 76.3	–	> 100 µM	–	> 91.6 µM	–	–	–	> 100 µM	–	> 76.8	> 100	–
Cc1ccc(S(=O)(=O)c2ccccn2)cc1	–	> 100	–	–	–	–	–	> 100	–	> 100 µM	–	> 100 µM	–	–	–	> 100 µM	–	> 100	–	–
O=C(Nc1cccc(Cl)c1)c1cc2cc(N=Nc3ccc(Br)cc3)ccc2oc1=O	–	> 100	–	–	–	–	–	> 100	–	76 µM	–	> 100 µM	–	–	–	> 100 µM	–	> 100	–	–
O=C(/C=C\c1ccc(Cl)c(Cl)c1)c1ccccc1	8.07	21.6	9.85	22	10.1	21.9	17.3	35.1	3.07	8.88 µM	–	–	1.89	5.58 µM	3.98	15.1 µM	10.6	23.6	9.22	2.75
COc1cccc2c1C(=N)c1c(O)c3c(c(O)c1C2=O)C[C@@](O)(C(C)=O)C[C@@H]3OC1CC(N)C(O)C(C)O1 (some centres undefined)	0.0766	–	1.66	16.2	0.018	0.0618	–	–	–	2.55 µM and 1.94 µM and 10.4 µM	–	1.83 µM and 5.14 µM and 2.21 µM	–	24.8 µM and 13.4 µM	–	2.62 µM and 3.56 µM	–	–	–	0.0196
CC1CCCC2(O1)OC1CC(=O)OC1C1=C2C(=O)c2ccccc2C1=O (centres undefined)	–	3.85	–	–	–	–	–	30.2	–	31.7 µM	–	4.43 µM	–	–	–	7.06 µM	–	30.5	–	–
CCCC1C2=C(C(=O)OC2=O)C2C(CC)CC3=C(C(=O)OC3=O)C12 (centres undefined)	–	> 100	–	> 100	–	> 100	–	> 100	–	> 100 µM	–	–	–	> 100 µM	–	> 100 µM	–	> 100	> 100	–
CNCc1ccc(C)c(NC(=O)c2ccc(Nc3nc(-c4ccccc4)c4ccccc4n3)cc2)c1	1.76	3.3	1.84	3.37	2.88	7.65	1.96	3.67	1.97	3.88 µM	–	–	1.58	3.25 µM	1.85	3.93 µM	–	–	4.86	1.79
COc1cc2c(c(OC)c1OC)-c1c(c3ccc([N+](=O)[O-])cc3c(=O)n1CCCN=[N+]=[N-])C2=O	15.4	43.8	47.5	> 100	71.3	> 100	15.4	38.1	> 100	> 100 µM	23.2	96.9 µM	1.37	> 100 µM	13.6	68.8 µM	29.7	98.3	–	–
CC(=O)NC1C(=O)CC(c2ccccc2)N(C)C1c1ccccc1 (centres undefined)	–	> 100	–	–	–	–	–	> 100	–	> 100 µM	–	> 100 µM	–	–	–	> 100 µM	–	> 100	> 100	–
NCCN.O=N[O-].O=N[O-].O=N[O-].O=N[O-].[Co+3].[K+]	> 100	> 100	–	–	–	–	> 100	> 100	> 100	> 100 µM	> 100	> 100 µM	–	–	> 100	> 100 µM	> 100	> 100	–	–
O=C1/C(=C/c2ccc([N+](=O)[O-])s2)Oc2ccc(Cl)cc21	0.887	3.21	0.248	0.682	–	–	0.775	3	0.24	0.593 µM	0.526	1.38 µM	0.305	1.43 µM	0.33	4.91 µM	0.512	1.55	0.73	0.204

Compound	GI50 [1] [µM]	TGI [1] [µM]	GI50 [2] [µM]	TGI [2] [µM]	GI50 [3] [µM]	TGI [3] [µM]	GI50 [4] [µM]	TGI [4] [µM]	GI50 [5] [µM]	TGI [5]	GI50 [6] [µM]	TGI [6]	GI50 [7] [µM]	TGI [7]	GI50 [8] [µM]	TGI [8]	GI50 [9] [µM]	TGI [9] [µM]	TGI [10] [µM]	GI50 [10] [µM]
CC(=O)OC12CCCCC1C1(CCCC1)NC2=O (centres undefined)	–	> 100	–	–	–	–	–	> 100	–	> 100 µM	–	> 100 µM	–	–	–	> 100 µM	–	> 100	> 100	–
CN(C)CCCn1c2c(c3ccc([N+](=O)[O-])cc3c1=O)C(=O)c1ccccc1-2	4.75	21.2	–	–	5.61	29.8	5.67	20.8	28.4	> 100 µM	7.86	> 100 µM	2.41	> 100 µM	17	49.4 µM	19.1	> 100	> 100	1.98
Cc1nc2c(=O)n(C)c(=O)nc-2n(-c2ccc(Cl)cc2)c1C	–	> 100	–	–	–	–	–	> 100	–	> 100 µM	–	> 100 µM	–	–	–	> 100 µM	–	> 100	–	–
COC(=O)c1c(OC(=O)c2ccccc2)noc1CC(=O)OC1C=CCCC1 (centres undefined)	–	> 100	–	–	–	–	–	> 100	–	> 100 µM	–	> 100 µM	–	–	–	> 100 µM	–	> 100	> 100	–
CC/C(=C(\c1ccccc1)c1ccc(OCC[N+](C)(C)C)cc1)c1ccccc1	–	27.9	–	–	–	–	–	56.5	–	29.8 µM	–	28.6 µM	–	–	–	37.9 µM	–	37.1	–	–
CCOC(=O)c1ccccc1NC(c1ccccc1)c1ccc2cccnc2c1O (centres undefined)	3.39	> 100	4.25	16.7	5.94	> 100	3.31	> 100	3.99	> 100 µM	–	–	2.98	45 µM	3.31	52.2 µM	2.83	> 100	10.3	2.02
O=C(Cc1nc2ccccc2s1)C(=O)Nc1ccccc1C(F)(F)F	–	> 100	–	–	–	–	–	> 100	–	> 100 µM	–	> 100 µM	–	–	–	> 100 µM	–	> 100	–	–
Cc1nn(C(=O)CC(=O)Nc2ccccc2Cl)c(C)c1N=Nc1ccccc1Cl	–	> 100	–	–	–	–	–	> 100	–	> 100 µM	–	> 100 µM	–	–	–	> 100 µM	–	> 100	> 100	–
Nc1nc(N)c2nn(-c3ccc(C(=O)O)cc3)nc2n1	–	> 100	–	> 100	–	> 100	–	> 100	–	> 100 µM	–	–	–	> 100 µM	–	> 100 µM	–	> 100	–	–
Nc1n[nH]c(=O)c2c1c(Br)cn2C1OC(CO)C(O)C1O (centres undefined)	–	> 100	–	–	–	–	–	98.2	–	> 100 µM	–	54.7 µM	–	–	–	6.23 µM	–	> 100	14.3	–
COc1cc(C2C(C(=O)Nc3ccc(Cl)c(Cl)c3)=C(C)NC(C)=C2C(=O)Nc2ccc(Cl)c(Cl)c2)ccc1O	–	25.3	–	–	–	–	–	23.1	–	27 µM	–	27.3 µM	–	–	–	40.3 µM	–	25.6	–	–
O=C1c2ccccc2CC1C1(O)C(=O)Nc2c(Cl)cc(Cl)cc21 (centres undefined)	–	> 100	–	–	–	–	–	> 100	–	> 100 µM	–	> 100 µM	–	–	–	> 100 µM	–	> 100	–	–
CCc1cccc(C(C)C)c1C1C(=O)C(=O)N(c2nc3ccccc3s2)C(=O)C1=O	–	> 100	–	–	–	–	–	> 100	–	> 100 µM	–	> 100 µM	–	–	–	–	–	> 100	> 100	–
COc1ccc(N2CCN(CC(=O)N3CCN(c4nnc(-c5ccc(Cl)cc5)c(-c5ccc(Cl)cc5)n4)CC3)CC2)cc1	10	> 100	4.83	> 100	75	> 100	> 100	> 100	4.86	> 100 µM	–	–	3.91	> 100 µM	22.1	> 100 µM	> 100	> 100	8.65	2.56
O=C1OC2C(O)COC2(OCc2c[nH]c3ccccc23)C1O (centres undefined) (tested in a mixture with another compound)	–	> 100	–	–	–	–	–	> 100	–	> 100 µM	–	> 100 µM	–	–	–	> 100 µM	–	> 100	> 100	–
O=C1[C@@H]2C3C=CC([C@H]4C(=O)N(CO)C(=O)[C@@H]34)[C@@H]2C(=O)N1CO	–	> 63.6	–	–	–	–	–	> 100	–	> 100 µM	–	> 100 µM	–	–	–	97.6 µM	–	> 100	–	–
N#Cc1c(-c2ccc(Cl)cc2)n([O-])c2ccccc2[n+]1=O	12.5	25	23.2	52.3	18.1	32.8	16.7	30.9	14.3	28.7 µM	–	–	15.9	> 100 µM	9.68	39 µM	20.6	48.6	–	–
O=S(O)CCCSSCCCCSSCCCS(=O)O	–	> 100	–	–	–	–	–	> 100	–	> 100 µM	–	> 100 µM	–	–	–	> 100 µM	–	> 100	–	–
COc1ccc(/C=C(\NC(=O)c2ccccc2)c2nc3ccccc3[nH]2)cc1	–	> 100	–	–	–	–	–	> 100	–	> 100 µM	–	> 100 µM	–	–	–	> 100 µM	–	> 100	89.8	–
C/C=C\C(C)=C/C(C)C(=O)CC(O)CC1CC(=O)NC(=O)C1 (centres undefined)	–	> 100	–	> 100	–	> 100	–	> 100	–	> 100 µM	–	–	–	> 100 µM	–	98.8 µM	–	> 90.6	> 63.1	–
